Reference: patent publication EP4721741A1, “PHARMACEUTICAL COMPOSITION, TOPICAL PREPARATION, AND PREPARATION METHOD THEREFOR AND USE THEREOF” (Lynk Pharmaceuticals Co. Ltd., priority 2023, dated 2024)

Experiment: Pharmacokinetic (PK) study after topical application: plasma, stratum corneum, epidermis, dermis
Format: in vivo, Bama miniature pigs
Method: Twenty-four (12 per sex) male and female Bama miniature pigs were divided into 5 groups. The ointment was applied to an estimated 10% of the animal's body surface area.
Animals in group 1 and group 2 received a single topical application of sample 2A and sample 2B, respectively. Plasma, stratum corneum, epidermis, and dermis samples were collected before administration (0 hour, plasma only) and at 0.5, 1, 4, 8, 12, and 24 hours after administration.
Group 3 animals were topically administered ointment sample 2B once daily for 7 consecutive days. Plasma samples were collected on day 1 and day 7 before administration (0) and 0.5, 1, 4, 8, 12, and 24 hours after administration; and on days 3, 4, 5, and 6 before administration (0). […]
Group 5 animals received a single topical application of sample 3a (administered at 25 µL/m^2 with a concentration of 6 mg/mL), and blood and skin samples were collected before administration (0) and at 0.5, 1, 3, and 6 hours after administration. […] The homogenized samples were extracted using three volumes of acetonitrile and quantified against a standard curve utilizing an LC-MS/MS system.
The concentrations of the active pharmaceutical ingredient in plasma, stratum corneum, epidermis, and dermis samples were determined using a high-performance liquid chromatography-[…] (LC-MS/MS) method.

accumulation: exposure levels (AUC0-last and Cmax) in the stratum corneum, epidermis, and dermis (7 consecutive days of once-daily topical application of the ointment at 12 µg/cm^2, both sexes): no accumulation
Concentrations in plasma samples (all plasma samples, topical application, Bama miniature pigs): below the lower limit of quantification
SMILES: Cc1cnc(Nc2cnn(C3CC(C)(C)OC(C)(C)C3)c2)nc1-c1ccc(C(=O)NCC#N)cc1 [active pharmaceutical ingredient]
